Measurements reported in the supplement of paper PMC10307832.

Legend:
Assay in all cases: relative viability (nuclei count vs DMSO), 5 days (fraction); higher = more cells survive
201T = tested on: 201T
In short: (§1)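 After 5 days of treatment, lung cancer cells in 1536-well plates were fixed and stained in a single step (final 0.05% Triton X-100, 1% formaldehyde, 1 ug/ml Hoechst) and their nuclei counted on 4× images. Treatment had been applied by pin tool the day after seeding as one drug alone or as a fixed anchor-drug dose with five library-drug doses (not always all listed) in √10 steps. Relative viability is the nuclei count of treated wells divided by that of vehicle wells, and values are medians of duplicate plates.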

BEN = tested on: BEN
In short: as §1

COR-L 105 = tested on: COR-L 105
In short: as §1

EKVX = tested on: EKVX
In short: as §1

EPLC-272H = tested on: EPLC-272H
In short: as §1

H3255 = tested on: H3255
In short: as §1

HCC-44 = tested on: HCC-44
In short: as §1

HCC-827 = tested on: HCC-827
In short: as §1

LCLC-97TM1 = tested on: LCLC-97TM1
In short: as §1

LOU-NH91 = tested on: LOU-NH91
In short: as §1

LU99A = tested on: LU99A
In short: as §1

NCI-H1437 = tested on: NCI-H1437
In short: as §1

NCI-H1666 = tested on: NCI-H1666
In short: as §1

NCI-H1975 = tested on: NCI-H1975
In short: as §1

NCI-H2085 = tested on: NCI-H2085
In short: as §1

NCI-H2087 = tested on: NCI-H2087
In short: as §1

NCI-H2170 = tested on: NCI-H2170
In short: as §1

NCI-H647 = tested on: NCI-H647
In short: as §1

NCI-H650 = tested on: NCI-H650
In short: as §1

PC-3 [JPC-3] = tested on: PC-3 [JPC-3]
In short: as §1

SW 1573 = tested on: SW 1573
In short: as §1

Cc1sc2c(c1C)C(c1ccc(Cl)cc1)=N[C@@H](CC(=O)OC(C)(C)C)c1nnc(C)n1-2 [JQ1] + CS(=O)(=O)CCNCc1ccc(-c2ccc3ncnc(Nc4ccc(OCc5cccc(F)c5)c(Cl)c4)c3c2)o1 [Lapatinib] (partner 2 µM) was tested, and the relative viability (201T; first compound 0.04 µM) was 0.998, the relative viability (201T; first compound 0.1265 µM) was 0.51 and the relative viability (201T; first compound 0.4 µM) was 0.974. It also gave a relative viability (201T; first compound 1.265 µM) of 0.724, a relative viability (201T; first compound 4 µM) of 0.548 and a relative viability (BEN; first compound 0.04 µM) of 0.676. The relative viability (BEN; first compound 0.1265 µM) was 0.561, the relative viability (BEN; first compound 0.4 µM) was 0.427 and the relative viability (BEN; first compound 1.265 µM) was 0.292. The relative viability (BEN; first compound 4 µM) was 0.266, the relative viability (COR-L 105; first compound 0.04 µM) was 0.291 and the relative viability (COR-L 105; first compound 0.1265 µM) was 0.279. For the same compound, the relative viability (COR-L 105; first compound 0.4 µM) was 0.323, the relative viability (COR-L 105; first compound 1.265 µM) was 0.346 and the relative viability (COR-L 105; first compound 4 µM) was 0.361. For the same compound, the relative viability (EKVX; first compound 0.04 µM) was 0.256, the relative viability (EKVX; first compound 0.1265 µM) was 0.269 and the relative viability (EKVX; first compound 0.4 µM) was 0.244. For the same compound, the relative viability (EKVX; first compound 1.265 µM) was 0.226, the relative viability (EKVX; first compound 4 µM) was 0.141 and the relative viability (EPLC-272H; first compound 0.04 µM) was 0.937. It also gave a relative viability (EPLC-272H; first compound 0.1265 µM) of 0.98, a relative viability (EPLC-272H; first compound 0.4 µM) of 0.994 and a relative viability (EPLC-272H; first compound 1.265 µM) of 0.519. It also gave a relative viability (EPLC-272H; first compound 4 µM) of 0.5, a relative viability (H3255; first compound 0.04 µM) of 0.226 and a relative viability (H3255; first compound 0.1265 µM) of 0.251. The relative viability (H3255; first compound 0.4 µM) was 0.248, the relative viability (H3255; first compound 1.265 µM) was 0.169 and the relative viability (H3255; first compound 4 µM) was 0.227. The relative viability (HCC-44; first compound 0.04 µM) was 1.07, the relative viability (HCC-44; first compound 0.1265 µM) was 0.849 and the relative viability (HCC-44; first compound 0.4 µM) was 0.795. It also gave a relative viability (HCC-44; first compound 1.265 µM) of 0.488, a relative viability (HCC-44; first compound 4 µM) of 0.532 and a relative viability (HCC-827; first compound 0.04 µM) of 0.206. The relative viability (HCC-827; first compound 0.4 µM) was 0.21, the relative viability (HCC-827; first compound 1.265 µM) was 0.189 and the relative viability (HCC-827; first compound 4 µM) was 0.202. The relative viability (LCLC-97TM1; first compound 0.1265 µM) was 0.805, the relative viability (LCLC-97TM1; first compound 0.4 µM) was 0.781 and the relative viability (LCLC-97TM1; first compound 1.265 µM) was 0.243. For the same compound, the relative viability (LCLC-97TM1; first compound 4 µM) was 0.252, the relative viability (LOU-NH91; first compound 0.04 µM) was 0.787 and the relative viability (LOU-NH91; first compound 0.1265 µM) was 0.679. For the same compound, the relative viability (LOU-NH91; first compound 0.4 µM) was 0.624, the relative viability (LOU-NH91; first compound 1.265 µM) was 0.501 and the relative viability (LOU-NH91; first compound 4 µM) was 0.392. The relative viability (LU99A; first compound 0.04 µM) was 1.14, the relative viability (LU99A; first compound 0.1265 µM) was 0.933 and the relative viability (LU99A; first compound 0.4 µM) was 0.902. It also gave a relative viability (LU99A; first compound 1.265 µM) of 0.316, a relative viability (LU99A; first compound 4 µM) of 0.217 and a relative viability (NCI-H1437; first compound 0.04 µM) of 0.72. The relative viability (NCI-H1437; first compound 0.1265 µM) was 0.463, the relative viability (NCI-H1437; first compound 0.4 µM) was 0.403 and the relative viability (NCI-H1437; first compound 1.265 µM) was 0.194. For the same compound, the relative viability (NCI-H1437; first compound 4 µM) was 0.216, the relative viability (NCI-H1666; first compound 0.04 µM) was 0.697 and the relative viability (NCI-H1666; first compound 0.1265 µM) was 0.476. It also gave a relative viability (NCI-H1666; first compound 0.4 µM) of 0.379, a relative viability (NCI-H1666; first compound 1.265 µM) of 0.278 and a relative viability (NCI-H1666; first compound 4 µM) of 0.288. It also gave a relative viability (NCI-H1975; first compound 0.04 µM) of 0.85, a relative viability (NCI-H1975; first compound 0.1265 µM) of 0.551 and a relative viability (NCI-H1975; first compound 0.4 µM) of 0.565. For the same compound, the relative viability (NCI-H1975; first compound 1.265 µM) was 0.351, the relative viability (NCI-H1975; first compound 4 µM) was 0.333 and the relative viability (NCI-H2085; first compound 0.04 µM) was 0.748. The relative viability (NCI-H2085; first compound 0.1265 µM) was 0.723, the relative viability (NCI-H2085; first compound 0.4 µM) was 0.621 and the relative viability (NCI-H2085; first compound 1.265 µM) was 0.409. For the same compound, the relative viability (NCI-H2085; first compound 4 µM) was 0.396, the relative viability (NCI-H2087; first compound 0.04 µM) was 1.12 and the relative viability (NCI-H2087; first compound 0.4 µM) was 0.904. It also gave a relative viability (NCI-H2087; first compound 1.265 µM) of 0.786, a relative viability (NCI-H2087; first compound 4 µM) of 0.506 and a relative viability (NCI-H2170; first compound 0.04 µM) of 0.258. For the same compound, the relative viability (NCI-H2170; first compound 0.1265 µM) was 0.252, the relative viability (NCI-H2170; first compound 0.4 µM) was 0.262 and the relative viability (NCI-H2170; first compound 1.265 µM) was 0.229. The relative viability (NCI-H2170; first compound 4 µM) was 0.254, the relative viability (NCI-H647; first compound 0.04 µM) was 0.997 and the relative viability (NCI-H647; first compound 0.1265 µM) was 0.509. The relative viability (NCI-H647; first compound 0.4 µM) was 0.439, the relative viability (NCI-H647; first compound 1.265 µM) was 0.104 and the relative viability (NCI-H647; first compound 4 µM) was 0.0821. For the same compound, the relative viability (NCI-H650; first compound 0.04 µM) was 0.959, the relative viability (NCI-H650; first compound 0.1265 µM) was 0.527 and the relative viability (NCI-H650; first compound 0.4 µM) was 0.647. The relative viability (NCI-H650; first compound 1.265 µM) was 0.259, the relative viability (NCI-H650; first compound 4 µM) was 0.295 and the relative viability (PC-3 [JPC-3]; first compound 0.04 µM) was 0.488. It also gave a relative viability (PC-3 [JPC-3]; first compound 0.1265 µM) of 0.529, a relative viability (PC-3 [JPC-3]; first compound 0.4 µM) of 0.432 and a relative viability (PC-3 [JPC-3]; first compound 1.265 µM) of 0.412. For the same compound, the relative viability (PC-3 [JPC-3]; first compound 4 µM) was 0.411, the relative viability (SW 1573; first compound 0.04 µM) was 1.13 and the relative viability (SW 1573; first compound 0.1265 µM) was 0.886. The relative viability (SW 1573; first compound 0.4 µM) was 0.881, the relative viability (SW 1573; first compound 1.265 µM) was 0.61 and the relative viability (SW 1573; first compound 4 µM) was 0.512.
